Consider 26 compounds from patent publication US10227357B2, “Compounds and methods for kinase modulation, and indications therefor” (Plexxikon Inc., priority 2012, dated 2019).

For one assay, the target named is T1, c-kit kinase (Homo sapiens, UniProt P10721).
T1 construct: The c-kit (or kinase domain thereof) is an active kinase in AlphaScreen; poly-Histidine tag (in-house protein only) (cleaved yes); host or cells: E. coli BL21(DE3)RIL, co-expressed with PTP1B
The experiment in a line: c-Kit biochemical assay, AlphaScreen, 10 μM ATP. Particulars: c-kit biochemical inhibitory activity; read-out: Biochemical activity (IC50 μM) Kit. The essentials:
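His-tagged c-Kit expressed in E. coli with co-expressed PTP1B (dephosphorylated), tag removed; 0.1 ng per reaction with biotinylated-peptide substrate in 50 mM HEPES pH 7.2, 5 mM MgCl2, 5 mM MnCl2, 5% DMSO, 10 μM ATP, 1 h at room temperature. Phosphorylation detected by AlphaScreen (streptavidin donor, PY20 acceptor beads); IC50 from 8-point 1:3 dilution series.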
Background: Bead proximity is the source of the signal in Alpha formats.

The next assay addresses T2, c-kit mutant D816V (Homo sapiens, UniProt P10721, D816V/DEL694-753).
T2 construct: residues 551-934, kinase insertion domain residues 694-753 deleted; 6x-histidine (N); made in house; host or cells: E. coli Arctic Express (DE3) RIL (Stratagene)
The experiment in a line: c-Kit mutant D816V biochemical assay, AlphaScreen. Particulars: c-kit D816V biochemical inhibitory activity; read-out: Biochemical activity (IC50 μM) Kit D816V. The essentials:
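Purified His-tagged c-Kit D816V (E. coli-expressed) assayed in 25 mM HEPES pH 7.2 with Mg/Mn, 5% DMSO and 10 μM ATP, 30 min at room temperature, 8-point 1:3 dilutions. Phosphorylation detected by AlphaScreen with streptavidin donor and PY20 acceptor beads; IC50 from signal versus concentration.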

T2 sequence (P10721 with tags, fused parts or gaps DEL694-753/D816V): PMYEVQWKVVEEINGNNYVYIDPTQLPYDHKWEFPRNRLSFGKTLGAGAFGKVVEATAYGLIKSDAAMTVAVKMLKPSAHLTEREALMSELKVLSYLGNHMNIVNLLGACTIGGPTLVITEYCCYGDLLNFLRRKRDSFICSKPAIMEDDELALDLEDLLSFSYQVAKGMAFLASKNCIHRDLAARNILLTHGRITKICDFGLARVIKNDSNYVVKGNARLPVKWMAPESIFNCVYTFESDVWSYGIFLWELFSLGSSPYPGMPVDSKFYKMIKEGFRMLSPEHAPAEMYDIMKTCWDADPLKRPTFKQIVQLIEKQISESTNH
T1 sequence (P10721 26-976): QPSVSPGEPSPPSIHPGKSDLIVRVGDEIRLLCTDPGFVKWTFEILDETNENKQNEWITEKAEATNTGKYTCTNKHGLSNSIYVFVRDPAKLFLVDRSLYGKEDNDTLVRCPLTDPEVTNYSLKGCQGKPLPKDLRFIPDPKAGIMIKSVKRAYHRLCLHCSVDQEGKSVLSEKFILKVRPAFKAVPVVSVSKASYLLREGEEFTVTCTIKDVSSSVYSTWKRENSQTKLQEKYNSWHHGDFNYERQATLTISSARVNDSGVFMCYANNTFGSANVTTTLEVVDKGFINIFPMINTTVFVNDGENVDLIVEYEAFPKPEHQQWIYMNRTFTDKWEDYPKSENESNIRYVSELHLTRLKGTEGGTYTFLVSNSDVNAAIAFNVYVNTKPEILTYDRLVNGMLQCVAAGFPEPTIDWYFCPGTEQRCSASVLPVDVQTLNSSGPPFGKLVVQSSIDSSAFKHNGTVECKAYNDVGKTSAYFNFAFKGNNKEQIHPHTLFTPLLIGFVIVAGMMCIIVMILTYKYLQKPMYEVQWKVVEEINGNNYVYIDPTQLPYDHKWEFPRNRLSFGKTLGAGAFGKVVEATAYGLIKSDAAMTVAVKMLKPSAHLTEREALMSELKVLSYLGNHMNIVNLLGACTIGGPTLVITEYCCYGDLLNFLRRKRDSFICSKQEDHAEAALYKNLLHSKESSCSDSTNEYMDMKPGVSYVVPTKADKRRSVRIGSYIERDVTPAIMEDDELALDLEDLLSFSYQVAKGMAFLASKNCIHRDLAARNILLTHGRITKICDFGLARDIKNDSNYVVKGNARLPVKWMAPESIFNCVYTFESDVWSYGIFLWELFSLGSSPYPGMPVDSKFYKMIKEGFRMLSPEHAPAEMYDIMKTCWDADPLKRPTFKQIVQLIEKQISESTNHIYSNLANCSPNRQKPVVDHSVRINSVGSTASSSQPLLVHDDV

Take `C[C@H](NC(=O)N1CCN(c2ncnc3[nH]c(-c4ccncc4)cc23)C[C@H]1C)c1ccc(F)cc1` [P-0058, (2R)-N-[(1S)-1-(4-fluorophenyl)ethyl]-2-methyl-4-[6-(4-pyridyl)-7H-pyrrolo[2,3-d]pyrimidin-4-yl]piperazine-1-carboxamide]: the IC50 on c-kit kinase was in the range of 1 to 10 µM; on c-kit mutant D816V, 0.0001 to 1 µM.

Take `C[C@H](NC(=O)N1CCN(c2ncnc3[nH]c(-c4ccncc4)cc23)C[C@H]1C)c1ccc(Cl)cc1` [P-0059, (2R)-N-[(1S)-1-(4-chlorophenyl)ethyl]-2-methyl-4-[6-(4-pyridyl)-7H-pyrrolo[2,3-d]pyrimidin-4-yl]piperazine-1-carboxamide]: the half-maximal inhibitory concentration (IC50) at c-kit kinase and at c-kit mutant D816V was 0.0001 to 1 µM in each case.

Take `COc1cccc([C@H](C)NC(=O)N2CCN(c3ncnc4[nH]c(-c5ccncc5)cc34)C[C@H]2C)c1` [P-0060, (2R)-N-[(1S)-1-(3-methoxyphenyl)ethyl]-2-methyl-4-[6-(4-pyridyl)-7H-pyrrolo[2,3-d]pyrimidin-4-yl]piperazine-1-carboxamide]: the 50% inhibitory concentration (IC50) at c-kit kinase and at c-kit mutant D816V was 0.0001 to 1 µM each time.

With `C[C@@H]1CN(c2ncnc3[nH]c(-c4ccncc4)cc23)CCN1C(=O)NCc1ccc(F)cc1` [P-0061, (2R)-N-[(4-fluorophenyl)methyl]-2-methyl-4-[6-(4-pyridyl)-7H-pyrrolo[2,3-d]pyrimidin-4-yl]piperazine-1-carboxamide], the concentration for half-maximal inhibition (IC50) at c-kit kinase lay within 1 to 10 µM; on c-kit mutant D816V, 0.0001 to 1 µM.

Take `C[C@@H]1CN(c2ncnc3[nH]c(-c4ccncc4)cc23)CCN1C(=O)Nc1ccc(F)c(Cl)c1` [P-0062, (2R)-N-(3-chloro-4-fluoro-phenyl)-2-methyl-4-[6-(4-pyridyl)-7H-pyrrolo[2,3-d]pyrimidin-4-yl]piperazine-1-carboxamide]: the half-maximal inhibitory concentration (IC50) at c-kit kinase is 1 to 10 µM; at c-kit mutant D816V it was 0.0001 to 1 µM.

For `C[C@@H]1CN(c2ncnc3[nH]c(-c4ccncc4)cc23)CCN1C(=O)Nc1ccc(OC(F)(F)F)cc1` [P-0063, (2R)-2-methyl-4-[6-(4-pyridyl)-7H-pyrrolo[2,3-d]pyrimidin-4-yl]-N-[4-(trifluoromethoxy)phenyl]piperazine-1-carboxamide], the IC50 on c-kit kinase and at c-kit mutant D816V was 0.0001 to 1 µM throughout.

Regarding `C[C@@H]1CN(c2ncnc3[nH]c(-c4ccncc4)cc23)CCN1C(=O)NCc1ccc(Cl)cc1` [P-0064, (2R)-N-[(4-chlorophenyl)methyl]-2-methyl-4-[6-(4-pyridyl)-7H-pyrrolo[2,3-d]pyrimidin-4-yl]piperazine-1-carboxamide], the IC50 on c-kit kinase and at c-kit mutant D816V was 0.0001 to 1 µM throughout.

On to `C[C@@H]1CN(c2ncnc3[nH]c(-c4ccncc4)cc23)CCN1C(=O)Nc1ccc(Cl)cc1` [P-0065, (2R)-N-(4-chlorophenyl)-2-methyl-4-[6-(4-pyridyl)-7H-pyrrolo[2,3-d]pyrimidin-4-yl]piperazine-1-carboxamide], for which the concentration for half-maximal inhibition (IC50) on c-kit kinase and on c-kit mutant D816V was 0.0001 to 1 µM each time.

On to `C[C@@H]1CN(c2ncnc3[nH]c(-c4ccncc4)cc23)CCN1C(=O)Nc1ccc(N(C)C)cc1` [P-0066, (2R)-N-(4-dimethylaminophenyl)-2-methyl-4-[6-(4-pyridyl)-7H-pyrrolo[2,3-d]pyrimidin-4-yl]piperazine-1-carboxamide], for which the IC50 on c-kit kinase lay within 1 to 10 µM; at c-kit mutant D816V, 0.0001 to 1 µM.

Consider `O=C(Nc1ccc(OC(F)(F)F)cc1)N1CCN(c2ncnc3[nH]c(-c4ccccc4F)cc23)CC1` [P-0067, 4-[6-(2-fluorophenyl)-7H-pyrrolo[2,3-d]pyrimidin-4-yl]-N-[4-(trifluoromethoxy)phenyl]piperazine-1-carboxamide], for which the IC50 on c-kit kinase is 0.0001 to 1 µM; at c-kit mutant D816V, 1 to 10 µM.

`CC1CN(c2ncnc3[nH]c(-c4ccncc4)cc23)CCN1C(=O)Nc1ccccc1` (stereo not shown) [P-0068, 2-methyl-N-phenyl-4-[6-(4-pyridyl)-7H-pyrrolo[2,3-d]pyrimidin-4-yl]piperazine-1-carboxamide]: the 50% inhibitory concentration (IC50) on c-kit kinase and at c-kit mutant D816V was 1 to 10 µM each time.

With `CN(C)c1ccc(NC(=O)N2CCN(c3ncnc4[nH]c(-c5ccc(C#N)cc5)cc34)CC2)cc1` [P-0070, 4-[6-(4-cyanophenyl)-7H-pyrrolo[2,3-d]pyrimidin-4-yl]-N-(4-dimethylaminophenyl)piperazine-1-carboxamide], the concentration for half-maximal inhibition (IC50) on c-kit kinase and at c-kit mutant D816V was 1 to 10 µM throughout.

For the compound `C[C@H]1CN(c2ncnc3[nH]c(-c4ccncc4)cc23)CCN1` [P-0071, 4-[(3S)-3-methylpiperazin-1-yl]-6-(4-pyridyl)-7H-pyrrolo[2,3-d]pyrimidine], the 50% inhibitory concentration (IC50) was 10 to 200 µM on c-kit kinase and 1 to 10 µM on c-kit mutant D816V.

Take `C[C@H](NC(=O)N1CCN(c2ncnc3[nH]c(-c4ccc(F)cc4)cc23)CC1)c1cccc(OC(F)F)c1` [P-0072, N-[(1S)-1-[3-(difluoromethoxy)phenyl]ethyl]-4-[6-(4-fluorophenyl)-7H-pyrrolo[2,3-d]pyrimidin-4-yl]piperazine-1-carboxamide]: the IC50 is 1 to 10 µM on c-kit kinase and 0.0001 to 1 µM at c-kit mutant D816V.

For the compound `C[C@@H]1CN(c2ncnc3[nH]c(-c4ccncc4)cc23)CCN1` [P-0074, 4-[(3R)-3-methylpiperazin-1-yl]-6-(4-pyridyl)-7H-pyrrolo[2,3-d]pyrimidine], the IC50 at c-kit kinase and at c-kit mutant D816V was 10 to 200 µM in each case.

As for `C[C@H](NC(=O)N1CCN(c2ncnc3[nH]c(-c4ccc(F)cc4)cc23)CC1)c1cccc(OC(F)(F)F)c1` [P-0075, 4-[6-(4-fluorophenyl)-7H-pyrrolo[2,3-d]pyrimidin-4-yl]-N-[(1S)-1-[3-(trifluoromethoxy)phenyl]lethyl]piperazine-1-carboxamide], the results for the IC50 on c-kit kinase and at c-kit mutant D816V were 10 to 200 µM and 1 to 10 µM, respectively.

Regarding `CS(=O)(=O)Nc1ccc(-c2cc3c(N4CCN(C(=O)Nc5ccc(OC(F)(F)F)cc5)CC4)ncnc3[nH]2)cc1` [P-0077, 4-[6-[4-(methanesulfonamido)phenyl]-7H-pyrrolo[2,3-d]pyrimidin-4-yl]-N-[4-(trifluoromethoxy)phenyl]piperazine-1-carboxamide], the 50% inhibitory concentration (IC50) at c-kit kinase and at c-kit mutant D816V was 0.0001 to 1 µM in each case.

As for `NC(=O)c1cccc(-c2cc3c(N4CCN(C(=O)Nc5ccc(OC(F)(F)F)cc5)CC4)ncnc3[nH]2)c1` [P-0078, 4-[6-(3-carbamoylphenyl)-7H-pyrrolo[2,3-d]pyrimidin-4-yl]-N-[4-(trifluoromethoxy)phenyl]piperazine-1-carboxamide], the IC50 at c-kit kinase fell in the range of 0.0001 to 1 µM; on c-kit mutant D816V, 10 to 200 µM.

In the case of `Cc1ncc(-c2cc3c(N4CCN(C(=O)NCc5ccc(F)cc5)CC4)ncnc3[nH]2)s1` [P-0079, N-[(4-fluorophenyl)methyl]-4-[6-(2-methylthiazol-5-yl)-7H-pyrrolo[2,3-d]pyrimidin-4-yl]piperazine-1-carboxamide], the IC50 on c-kit kinase and on c-kit mutant D816V was 0.0001 to 1 µM in each case.

On to `Cc1ncc(-c2cc3c(N4CCN(C(=O)Nc5ccc(OC(F)(F)F)cc5)CC4)ncnc3[nH]2)s1` [P-0080, 4-[6-(2-methylthiazol-5-yl)-7H-pyrrolo[2,3-d]pyrimidin-4-yl]-N-[4-(trifluoromethoxy)phenyl]piperazine-1-carboxamide], for which the 50% inhibitory concentration (IC50) at c-kit kinase and at c-kit mutant D816V was 0.0001 to 1 µM each time.

As to `CNC(=O)c1cccc(-c2cc3c(N4CCN(C(=O)NCc5ccc(F)cc5)CC4)ncnc3[nH]2)c1` [P-0081, N-[(4-fluorophenyl)rnethyl]-4-[6-[3-(methylcarbamoyl)phenyl]-7H-pyrrolo[2,3-d]pyrimidin-4-yl]piperazine-1-carboxamide], the results for the half-inhibitory concentration (IC50) at c-kit kinase and on c-kit mutant D816V were 1 to 10 µM and 0.0001 to 1 µM, respectively.

For the compound `CC(=O)Nc1cccc(-c2cc3c(N4CCN(C(=O)NCc5ccc(F)cc5)CC4)ncnc3[nH]2)c1` [P-0082, 4-[6-(3-acetamidophenyl)-7H-pyrrolo[2,3-d]pyrimidin-4-yl]-N-[(4-fluorophenyl)methyl]piperazine-1-carboxamide], the half-maximal inhibitory concentration (IC50) at c-kit kinase is 1 to 10 µM; on c-kit mutant D816V it was 0.0001 to 1 µM.

Turning to `NS(=O)(=O)c1cccc(-c2cc3c(N4CCN(C(=O)Nc5ccc(OC(F)(F)F)cc5)CC4)ncnc3[nH]2)c1` [P-0083, 4-[6-(3-sulfamoylphenyl)-7H-pyrrolo[2,3-d]pyrimidin-4-yl]-N-[4-(trifluoromethoxy)phenyl]piperazine-1-carboxamide], the IC50 on c-kit kinase and on c-kit mutant D816V was 0.0001 to 1 µM in each case.

Regarding `CC(=O)Nc1ccc(-c2cc3c(N4CCN(C(=O)Nc5ccc(OC(F)(F)F)cc5)CC4)ncnc3[nH]2)cn1` [P-0084, 4-[6-(6-acetamido-3-pyridyl)-7H-pyrrolo[2,3-d]pyrimidin-4-yl]-N-[4-(trifluoromethoxy)phenyl]piperazine-1-carboxamide], the IC50 at c-kit kinase lay in the range of 1 to 10 µM; at c-kit mutant D816V, 0.0001 to 1 µM.

Turning to `CN(C)C(=O)c1cccc(-c2cc3c(N4CCN(C(=O)Nc5ccc(OC(F)(F)F)cc5)CC4)ncnc3[nH]2)c1` [P-0085, 4-[6-[3-(dimethylcarbamoyl)phenyl]-7H-pyrrolo[2,3-d]pyrimidin-4-yl]-N-[4-(trifluoromethoxy)phenyl]piperazine-1-carboxamide], the half-maximal inhibitory concentration (IC50) at c-kit kinase and at c-kit mutant D816V was 0.0001 to 1 µM throughout.

In the case of `N#Cc1ccc(-c2cc3c(N4CCN(C(=O)Nc5ccc(OC(F)(F)F)cc5)CC4)ncnc3[nH]2)cc1` [P-0086, 4-[6-(4-cyanophenyl)-7H-pyrrolo[2,3-d]pyrimidin-4-yl]-N-[4-(trifluoromethoxy)phenyl]piperazine-1-carboxamide], the 50% inhibitory concentration (IC50) on c-kit kinase was 1 to 10 µM; at c-kit mutant D816V, 0.0001 to 1 µM.

The term IC50 denotes the point on the concentration scale where inhibition reaches its midpoint.
